Several values for one entry are separate records, joined by “and”; a condition that tells them apart may be missing. Equal values may be shown once.
Tested on: HIF1-a protein in L929 cells
Assay: In vitro HIF stabilization (HIF1-a ELISA, normalized to DNA content)
Assay type: cell-based
Conditions: for level of HIF-1a compared to the negative control cells: alone, 0.01, 0.1, 1, 10 and 100 micromolar, L929 cells

For O=c1cc(-c2ccccc2)oc2ccccc12 [Flavone, 2-phenylchromen-4-one], the “level of HIF-1a compared to the negative control cells” value was “either a decrease of HIF-1a or the same level of HIF-1a”.
With O=c1c(-c2ccc(O)cc2)coc2c([C@@H]3O[C@H](CO)[C@@H](O)[C@H](O)[C@H]3O)c(O)ccc12 [Puerarin, 7-hydroxy-3-(4-hydroxyphenyl)-8-[(2S,3R,4R,5S,6R)-3,4,5-trihydroxy-6-(hydroxymethyl)oxan-2-yl]chromen-4-one] the “level of HIF-1a compared to the negative control cells” value was “either a decrease of HIF-1a or the same level of HIF-1a”.
For [Cl-].[Cl-].[Co+2] [CoCl2], the “HIF content increase (normalized to the DNA content) compared to the negative control” value was 2.21 fold and 2.16 fold.

Source: patent publication US20240285660A1, “COMPOSITION FOR WOUND RELIEF AND INHIBITING A PHD PROTEIN AND METHODS OF TREATMENT” (Curapep LLC, priority 2021, published 2024)
